Experimental data: PubChem BioAssay (NCI)
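GI50 is the concentration that inhibits growth by half. Definition used: TGI = concentration required for complete inhibition of growth.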

Key:
Assay in all cases: NCI tumour cell line growth inhibition, 384-well format
[1] = test system: RXF 393 renal
[2] = test system: HT29 colon
[3] = test system: MDA-MB-231 breast
[4] = test system: HCC-2998 colon
[5] = test system: COLO 205 colon
[6] = test system: HOP-92 NSCLC
[7] = test system: OVCAR-8 ovarian
[8] = test system: NCI-H226 lung
[9] = test system: MCF7 breast
[10] = test system: SK-MEL-28 melanoma
[11] = test system: OVCAR-3 ovarian
[12] = test system: OVCAR-5 ovarian
[13] = test system: NCI-H23 lung
[14] = test system: A549 NSCLC
[15] = test system: SK-MEL-5 melanoma
[16] = test system: NCI-H322M lung
[17] = test system: IGROV1 ovarian
[18] = test system: HOP-62 NSCLC
[19] = test system: EKVX NSCLC
[20] = test system: U251 glioblastoma
[21] = test system: T-47D breast
[22] = test system: HL-60(TB) leukemia
[23] = test system: BT-549 breast
[24] = test system: SNB-19 CNS
[25] = test system: TK-10 renal
[26] = test system: NCI-H460 NSCLC
[27] = test system: MDA-MB-468 breast
[28] = test system: 786-0 renal
[29] = test system: NCI/ADR-RES ovarian
[30] = test system: HCT-116 colon
[31] = test system: OVCAR-4 ovarian
[32] = test system: HCT-15 colon
[33] = test system: RPMI-8226 leukemia
[34] = test system: UO-31 renal
[35] = test system: CCRF-CEM leukemia
[36] = test system: SK-OV-3 ovarian
[37] = test system: K-562 leukemia
[38] = test system: SW-620 colon
[39] = test system: UACC-62 melanoma
[40] = test system: LOX IMVI melanoma
[41] = test system: DU-145 prostate
[42] = test system: UACC-257 melanoma
[43] = test system: SF-268 CNS
[44] = test system: A498 renal
[45] = test system: SF-539 CNS
[46] = test system: M14 melanoma
[47] = test system: NCI-H522 lung
[48] = test system: SF-295 CNS
[49] = test system: CAKI-1 renal
[50] = test system: HS 578T breast
[51] = test system: MDA-MB-435 melanoma
[52] = test system: MOLT-4 leukemia
[53] = test system: KM12 colon
[54] = test system: PC-3 prostate
[55] = test system: SNB-75 CNS
[56] = test system: ACHN renal
[57] = test system: MALME-3M melanoma
[58] = test system: SN12C renal

COc1ccc(-c2nc(N3CCOCC3)c3sc(CN(C)c4ncc(C(=O)NO)cn4)cc3n2)cn1
GI50 [1]: < 10 nM
TGI [1]: < 10 nM
GI50 [2]: < 10 nM
TGI [2]: 12.5 nM
GI50 [3]: < 10 nM
TGI [3]: < 10 nM
GI50 [4]: < 10 nM
TGI [4]: < 10 nM
GI50 [5]: < 10 nM
TGI [5]: 11 nM
GI50 [6]: < 10 nM
TGI [6]: 23.6 nM
GI50 [7]: < 10 nM
TGI [7]: 10.1 nM
GI50 [8]: < 10 nM
TGI [8]: 33 nM
GI50 [9]: < 10 nM
TGI [9]: < 10 nM
GI50 [10]: < 10 nM
TGI [10]: 17.9 nM
GI50 [11]: < 10 nM
TGI [11]: < 10 nM
GI50 [12]: < 10 nM
TGI [12]: 16.9 nM
GI50 [13]: < 10 nM
TGI [13]: < 10 nM
GI50 [14]: < 10 nM
TGI [14]: < 10 nM
GI50 [15]: < 10 nM
TGI [15]: < 10 nM
GI50 [16]: < 10 nM
TGI [16]: 19.1 nM
GI50 [17]: < 10 nM
TGI [17]: 10.6 nM
GI50 [18]: < 10 nM
TGI [18]: 17.4 nM
GI50 [19]: 14 nM
TGI [19]: 76.5 nM
GI50 [20]: < 10 nM
TGI [20]: < 10 nM
GI50 [21]: < 10 nM
TGI [21]: < 10 nM
GI50 [22]: < 10 nM
TGI [22]: < 10 nM
GI50 [23]: < 10 nM
TGI [23]: 13.6 nM
GI50 [24]: < 10 nM
TGI [24]: 18.7 nM
GI50 [25]: 11.6 nM
TGI [25]: 28.7 nM
GI50 [26]: < 10 nM
TGI [26]: 11.7 nM
GI50 [27]: < 10 nM
TGI [27]: < 10 nM
GI50 [28]: < 10 nM
TGI [28]: 28.4 nM
GI50 [29]: < 10 nM
TGI [29]: 12.5 nM
GI50 [30]: < 10 nM
TGI [30]: < 10 nM
GI50 [31]: 13.9 nM
TGI [31]: 40.7 nM
GI50 [32]: < 10 nM
TGI [32]: 23.2 nM
GI50 [33]: < 10 nM
TGI [33]: < 10 nM
GI50 [34]: < 10 nM
TGI [34]: 26.9 nM
GI50 [35]: < 10 nM
TGI [35]: < 10 nM
GI50 [36]: < 10 nM
TGI [36]: < 10 nM
GI50 [37]: < 10 nM
TGI [37]: < 10 nM
GI50 [38]: < 10 nM
TGI [38]: < 10 nM
GI50 [39]: < 10 nM
TGI [39]: < 10 nM
GI50 [40]: < 10 nM
TGI [40]: < 10 nM
GI50 [41]: < 10 nM
TGI [41]: < 10 nM
GI50 [42]: < 10 nM
TGI [42]: < 10 nM
GI50 [43]: < 10 nM
TGI [43]: < 10 nM
GI50 [44]: < 10 nM
TGI [44]: 12.3 nM
GI50 [45]: < 10 nM
TGI [45]: 13.6 nM
GI50 [46]: < 10 nM
TGI [46]: < 10 nM
GI50 [47]: < 10 nM
TGI [47]: < 10 nM
GI50 [48]: < 10 nM
TGI [48]: 18.9 nM
GI50 [49]: < 10 nM
TGI [49]: < 10 nM
GI50 [50]: < 10 nM
TGI [50]: 16 nM
GI50 [51]: < 10 nM
TGI [51]: 10.1 nM
GI50 [52]: < 10 nM
TGI [52]: < 10 nM
GI50 [53]: < 10 nM
TGI [53]: 15.1 nM
GI50 [54]: < 10 nM
TGI [54]: 10.7 nM
GI50 [55]: < 10 nM
TGI [55]: 22.6 nM
GI50 [56]: < 10 nM
TGI [56]: 13.3 nM
GI50 [57]: < 10 nM
TGI [57]: < 10 nM
GI50 [58]: < 10 nM
TGI [58]: 16.3 nM

CCN(CC)CCCCNc1ncc2cc(-c3cc(OC)cc(OC)c3)c(NC(=O)NC(C)(C)C)nc2n1
GI50 [1]: 1730 nM
TGI [1]: 5850 nM
GI50 [2]: 1600 nM
TGI [2]: 3460 nM
GI50 [3]: 9090 nM
TGI [3]: 21100 nM
GI50 [4]: 3010 nM
TGI [4]: 10500 nM
GI50 [5]: 7160 nM
TGI [5]: 19400 nM
GI50 [6]: 7760 nM
TGI [6]: 20100 nM
GI50 [7]: 5320 nM
TGI [7]: 17500 nM
GI50 [8]: 35.8 nM
TGI [8]: 17600 nM
GI50 [9]: 4040 nM
TGI [9]: 16200 nM
GI50 [10]: 3230 nM
TGI [10]: 8340 nM
GI50 [11]: 4050 nM
TGI [11]: 14500 nM
GI50 [12]: 9740 nM
TGI [12]: 21600 nM
GI50 [13]: 10900 nM
TGI [13]: 22900 nM
GI50 [14]: 6040 nM
TGI [14]: 18500 nM
GI50 [15]: 1920 nM
TGI [15]: 4480 nM
GI50 [16]: 6370 nM
TGI [16]: 19400 nM
GI50 [17]: 3560 nM
TGI [17]: 16000 nM
GI50 [18]: 6070 nM
TGI [18]: 18200 nM
GI50 [19]: 5430 nM
TGI [19]: 17500 nM
GI50 [20]: 3840 nM
TGI [20]: 12600 nM
GI50 [21]: 2820 nM
TGI [21]: 8190 nM
GI50 [22]: 1780 nM
TGI [22]: 3190 nM
GI50 [23]: 2490 nM
TGI [23]: 12800 nM
GI50 [24]: 13600 nM
TGI [24]: 26700 nM
GI50 [25]: 10600 nM
TGI [25]: 22700 nM
GI50 [26]: 3570 nM
TGI [26]: 12600 nM
GI50 [27]: 3810 nM
TGI [27]: 10100 nM
GI50 [28]: 3050 nM
TGI [28]: 12700 nM
GI50 [29]: 5260 nM
TGI [29]: 17200 nM
GI50 [30]: 2860 nM
TGI [30]: 8340 nM
GI50 [31]: 13600 nM
TGI [31]: 26600 nM
GI50 [32]: 3020 nM
TGI [32]: 11600 nM
GI50 [33]: 4310 nM
TGI [33]: 14300 nM
GI50 [34]: 8380 nM
TGI [34]: 20700 nM
GI50 [35]: 2160 nM
TGI [35]: 4680 nM
GI50 [36]: 3770 nM
TGI [36]: 14000 nM
GI50 [37]: 2560 nM
TGI [37]: 6170 nM
GI50 [38]: 11300 nM
TGI [38]: 23400 nM
GI50 [39]: 5330 nM
TGI [39]: 17000 nM
GI50 [40]: 2460 nM
TGI [40]: 6580 nM
GI50 [41]: 7200 nM
TGI [41]: 19500 nM
GI50 [42]: 1980 nM
TGI [42]: 3410 nM
GI50 [43]: 1530 nM
TGI [43]: 4770 nM
GI50 [44]: 2480 nM
TGI [44]: 15000 nM
GI50 [45]: 2220 nM
TGI [45]: 8590 nM
GI50 [46]: 1900 nM
TGI [46]: 3820 nM
GI50 [47]: 10100 nM
TGI [47]: 21700 nM
GI50 [48]: 12700 nM
TGI [48]: 25500 nM
GI50 [49]: 1650 nM
TGI [49]: 10900 nM
GI50 [50]: 2280 nM
TGI [50]: 9130 nM
GI50 [51]: 10900 nM
TGI [51]: 23000 nM
GI50 [52]: 1640 nM
TGI [52]: 3260 nM
GI50 [53]: 5320 nM
TGI [53]: 17300 nM
GI50 [54]: 7340 nM
TGI [54]: 19600 nM
GI50 [55]: 613 nM
TGI [55]: 13800 nM
GI50 [56]: 4170 nM
TGI [56]: 15800 nM
GI50 [57]: 1880 nM
TGI [57]: 3350 nM
GI50 [58]: 4160 nM
TGI [58]: 15000 nM
